Here are results for nine molecules from PubChem BioAssay (NCI).

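Test compounds were applied to cells in 96-well plates for 48 hours at 5 doses. GI50: concentration for 50% inhibition of growth. TGI: concentration producing complete growth inhibition.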

Some test systems named below: SK-MEL-2 melanoma; RPMI-8226 leukemia; SK-MEL-28 melanoma; A498 renal; OVCAR-4 ovarian; LOX IMVI melanoma; 786-0 renal; UACC-257 melanoma; COLO 205 colon; SF-295 CNS.
Common to all, as to assay: NCI-60 cell line screen, 48 h

Regarding `CC1/C(=N/Nc2ccc([N+](=O)[O-])cc2)CC2C3(C)CCC2(C(C)C(=O)O)C(=O)C13` (stereo not given), the GI50 in the experiment with SK-MEL-2 melanoma is 8.75 µM; in the experiment with RPMI-8226 leukemia it was 2.95 µM; with SK-MEL-28 melanoma, greater than 100 µM; in the experiment with A498 renal, 0.85 µM; in the experiment with OVCAR-4 ovarian it was greater than 100 µM; with LOX IMVI melanoma, 75.3 µM. The GI50 with 786-0 renal is 11.3 µM; in the experiment on UACC-257 melanoma, greater than 100 µM; with COLO 205 colon it was 9 µM; in the experiment with SF-295 CNS it was 4.74 µM. Further, the TGI in the experiment with SK-MEL-2 melanoma is greater than 100 µM; in the experiment on RPMI-8226 leukemia, 24 µM; with SK-MEL-28 melanoma it was greater than 100 µM; in the experiment on A498 renal, 41.9 µM; with OVCAR-4 ovarian it was greater than 100 µM; in the experiment with LOX IMVI melanoma, greater than 100 µM. In addition, the TGI in the experiment on 786-0 renal, in the experiment with UACC-257 melanoma, in the experiment with COLO 205 colon and with SF-295 CNS was greater than 100 µM each time.
For the molecule `CC1=Nn2c(nnc2-c2ccc(N)cc2)NC(C)(C)C1`, the TGI with SK-MEL-2 melanoma, in the experiment with RPMI-8226 leukemia, in the experiment with SK-MEL-28 melanoma, with A498 renal, with OVCAR-4 ovarian and with LOX IMVI melanoma was greater than 100 µM throughout. Besides, the TGI in the experiment on 786-0 renal, in the experiment with UACC-257 melanoma, in the experiment with COLO 205 colon and in the experiment on SF-295 CNS was greater than 100 µM in each case.
Regarding `CC1(C)C2C/C(=C\c3ccccc3)C(=O)C1C2` (stereo not given), the TGI in the experiment with SK-MEL-2 melanoma, with RPMI-8226 leukemia, in the experiment with SK-MEL-28 melanoma, with A498 renal, with OVCAR-4 ovarian and with LOX IMVI melanoma was greater than 100 µM in each case. For the same molecule, the TGI in the experiment with 786-0 renal, in the experiment on UACC-257 melanoma, in the experiment on COLO 205 colon and with SF-295 CNS was greater than 100 µM each time.
As for `C=C1CC[C@@H]2[C@](C)(COC(C)=O)[C@H](OC(C)=O)CC[C@@]2(C)[C@@H]1C/C=C1/C(=O)OC[C@H]1OC(C)=O`, the GI50 in the experiment on SK-MEL-2 melanoma was 10.7 µM; with RPMI-8226 leukemia, 2.06 µM; in the experiment on SK-MEL-28 melanoma, 1.75 µM; with A498 renal, 14.4 µM; in the experiment with OVCAR-4 ovarian it was 3.57 µM; with LOX IMVI melanoma it was 1.42 µM. The GI50 was 2.02 µM in the experiment on 786-0 renal, 6.2 µM in the experiment on UACC-257 melanoma, 3.37 µM with COLO 205 colon and 13.3 µM with SF-295 CNS. In addition, the TGI in the experiment on SK-MEL-2 melanoma is 26.3 µM; with RPMI-8226 leukemia, 7.68 µM; with SK-MEL-28 melanoma, 3.38 µM; in the experiment on A498 renal, 27.5 µM; with OVCAR-4 ovarian, 15.4 µM; with LOX IMVI melanoma it was 2.85 µM. The TGI in the experiment on 786-0 renal was determined as 4.34 µM; in the experiment with UACC-257 melanoma, 19.9 µM; with COLO 205 colon it was 11.4 µM; with SF-295 CNS, 26.8 µM.
As to `CC12CC3CC(C1)CC(N=[N+]=[N-])(C3)C2`, the TGI in the experiment on SK-MEL-2 melanoma, with RPMI-8226 leukemia, in the experiment with SK-MEL-28 melanoma, in the experiment on A498 renal, in the experiment on OVCAR-4 ovarian and in the experiment with LOX IMVI melanoma was greater than 100 µM throughout. For the same molecule, the TGI in the experiment on 786-0 renal, in the experiment with UACC-257 melanoma, with COLO 205 colon and in the experiment with SF-295 CNS was greater than 100 µM each time.
Turning to `COc1cccc2c(=O)c3c(sc12)c(NCCN(C)C)nc1ccccc13`, the GI50 in the experiment on SK-MEL-2 melanoma was 1.84 µM; with RPMI-8226 leukemia, 1.36 µM; in the experiment with SK-MEL-28 melanoma it was 1.92 µM; in the experiment with A498 renal it was 1.49 µM; in the experiment with OVCAR-4 ovarian, 1.57 µM; in the experiment on LOX IMVI melanoma, 1.33 µM. Further, the GI50 in the experiment with 786-0 renal is 1.65 µM; in the experiment on UACC-257 melanoma it was 1.72 µM; with COLO 205 colon, 1.2 µM; in the experiment with SF-295 CNS it was 1.65 µM. Also, the TGI worked out at 3.82 µM in the experiment on SK-MEL-2 melanoma; 3.17 µM with RPMI-8226 leukemia; 3.49 µM in the experiment with SK-MEL-28 melanoma; 2.93 µM with A498 renal; 3.68 µM with OVCAR-4 ovarian; 2.76 µM with LOX IMVI melanoma. Also, the TGI was determined as 3.16 µM with 786-0 renal, 3.5 µM in the experiment on UACC-257 melanoma, 2.86 µM in the experiment with COLO 205 colon and 3.42 µM in the experiment on SF-295 CNS.
Regarding `Oc1ccc(N=Nc2ccc(N=Nc3ccccc3)cc2)cc1`, the GI50 in the experiment with SK-MEL-2 melanoma was 2.29 µM; in the experiment on RPMI-8226 leukemia, 2.15 µM; in the experiment with SK-MEL-28 melanoma it was 1.7 µM; with A498 renal, 9.23 µM; with OVCAR-4 ovarian it was 8.43 µM; with LOX IMVI melanoma, 0.285 µM. Further, the GI50 in the experiment with 786-0 renal was 1.32 µM; with UACC-257 melanoma it was 4.23 µM; in the experiment with COLO 205 colon, 8.01 µM; in the experiment on SF-295 CNS, 2.32 µM. The TGI came to 8.06 µM with SK-MEL-2 melanoma; 16 µM in the experiment with RPMI-8226 leukemia; 3.64 µM with SK-MEL-28 melanoma; 21.7 µM in the experiment on A498 renal; 32.9 µM in the experiment on OVCAR-4 ovarian; 1.76 µM in the experiment on LOX IMVI melanoma. Besides, the TGI with 786-0 renal amounted to 6.05 µM; in the experiment with UACC-257 melanoma, 17 µM; in the experiment with COLO 205 colon, 24.4 µM; in the experiment on SF-295 CNS, 10.1 µM.
Regarding `Clc1ccc(SCCCCCCCCCCSc2ccc(Cl)cc2)cc1`, the TGI is greater than 70.4 µM in the experiment on SK-MEL-2 melanoma; greater than 100 µM in the experiment on RPMI-8226 leukemia; greater than 100 µM with SK-MEL-28 melanoma; greater than 100 µM in the experiment on A498 renal; greater than 100 µM in the experiment on OVCAR-4 ovarian; greater than 100 µM with LOX IMVI melanoma. Further, the TGI was greater than 70.4 µM in the experiment on 786-0 renal, greater than 76.1 µM in the experiment on UACC-257 melanoma, greater than 100 µM in the experiment with COLO 205 colon and greater than 71.4 µM in the experiment on SF-295 CNS.
For `C=C1C(=O)O[C@H]2[C@H]1CC/C(CNS(=O)(=O)c1cccc3ccccc13)=C\CC[C@@]1(C)O[C@@H]21`, the GI50 is 5.18 µM in the experiment on SK-MEL-2 melanoma; 1.58 µM with RPMI-8226 leukemia; 1.97 µM with SK-MEL-28 melanoma; 4.85 µM in the experiment with A498 renal; 1.72 µM in the experiment on OVCAR-4 ovarian; 1.45 µM in the experiment on LOX IMVI melanoma. Besides, the GI50 in the experiment with 786-0 renal was 1.61 µM; in the experiment with UACC-257 melanoma, 1.64 µM; with COLO 205 colon it was 1.73 µM; in the experiment with SF-295 CNS, 5.49 µM. The TGI with SK-MEL-2 melanoma stood at 18.3 µM; in the experiment with RPMI-8226 leukemia, 4.43 µM; with SK-MEL-28 melanoma it was 4.24 µM; with A498 renal, 17.2 µM; with OVCAR-4 ovarian it was 3.68 µM; in the experiment on LOX IMVI melanoma, 2.93 µM. Further, the TGI was found to be 3.27 µM in the experiment with 786-0 renal, 3.89 µM in the experiment with UACC-257 melanoma, 3.49 µM with COLO 205 colon and 19.2 µM in the experiment on SF-295 CNS.
